Tests used:
HeLa = assay: CCK-8 anti-proliferation assay, HeLa; type: cell-based, human; conditions: Homo sapiens, mean ± SD
Procedure: (§1) Human cervical cancer HeLa, human prostate cancer PC3, human colonic carcinoma HCT116, human lung carcinoma A549, human breast cancer MDA-MB-231, mouse melanoma B16, human ovarian cancer SKOV3, human hepatoma Hep3B, and human liver L02 cells were purchased from the Cell Bank of Shanghai Institute of Biochemistry and Cell Biology, Chinese Academy of Sciences (Shanghai, China). The HeLa, A549, B16, PC3, MDA-MB-231, HCT116, and L02 cells were cultured in Dulbecco’s modified Eagle medium (DMEM, Gibco Inc.; Gaithersburg, MD, USA). All cultures were supplied with 10% fetal bovine serum (FBS; YHSM, Beijing, China), 100 IU/mL of penicillin, and 100 μg/mL of streptomycin, and cells were incubated at 37 °C in an atmosphere of 5% CO2.
(§2) A CCK-8 kit (MCE, USA) was used to perform a CCK-8 assay. Cells were plated and grown in the 96-well plates for the indicated period (48 h) in the incubator, followed by an incubation with the CCK-8 solutions for 1–4 h. Subsequently, the absorbance (450 nm) was measured by a microplate reader. The median inhibitory concentration (IC50) was determined from the dose–response curve. Experiments were performed in a triplicate.

PC3 = assay: CCK-8 anti-proliferation assay, PC3; type: cell-based, human; conditions: mean ± SD; for IC50: 48 h
Procedure: as §1, §2

HCT116 = assay: CCK-8 anti-proliferation assay, HCT116; type: cell-based, human; conditions: Homo sapiens, mean ± SD
Procedure: as §1, §2

Hep3B = assay: CCK-8 anti-proliferation assay, Hep3B; type: cell-based, human; conditions: 48 h, mean ± SD
Procedure: as §1, §2

L02 cells = assay: CCK-8 assay on normal cells, L02; type: cell-based; conditions: L02 human normal hepatocytes, 48 h, mean ± SD
Procedure: as §1, §2

HeLa cells = assay: Wound healing assay; type: cell-based, human; conditions: 6 μM, 48 h
Procedure: A total of 1 × 10^6 HeLa cells/well in the logarithmic growth phase were seeded into 6-well plates. When the cell density reached 80–90%, a scratch was made in the monolayer in the middle of the well with a 200 μL pipette tip. The tip was kept perpendicular to the bottom of the well to obtain a straight gap. The detached cells were washed away and removed. Wound healing within the same scraped line was then observed and photographed at the indicated time points (0 h, 24 h, and 48 h). Images were taken at 0 h, 24 h and 48 h after scraping using a phase-contrast microscope. The wound closure was calculated as a percentage (%) of the difference in the width of the wound between 0 h, 24 h and 48 h relative to 0 h, as described below: Wound closure (%) = (Width of wound at 0 h − Width of wound at 24 h)/Width of wound at 0 h × 100%

[1] = system: AKT phosphorylation in HeLa cells; assay: Western blot, AKT phosphorylation; type: cell-based, human; conditions: 6 h interval
Procedure: Protein levels were determined by the standard Western blot assay. […] Cells harvested with trypsin were treated with 1× RIPA lysis buffer (50 mM Tris-HCl, pH 7.4, 150 mM NaCl, 0.25% deoxycholic acid, 1% NP-40, 1 mM ethylenediaminetetraacetate (EDTA), and protease inhibitor PMSF (Solarbio, Beijing, China) to extract the total proteins. Then, an aliquot of proteins from the total cell lysates (4–40 μg/lane) was separated using sodium dodecyl sulfate (8, 10, or 12%) polyacrylamide gel electrophoresis (BioRad Laboratories, Hercules, CA, USA). The aliquot was wet-transferred to a PVDF membrane (BioRad Laboratories, Hercules, CA, USA), blotted with primary antibodies (purchased from Cell Signaling Technology, Danvers, MA, USA) specific for the STAT3 (#12640), p-STAT3 (#9145), AKT (#4691), p-AKT (#4060), Bax (#5023), Bcl-xl (#2764), secondary isotype-specific antibodies (#7074) and glyceraldehyde-3-phosphate dehydro-genase (GAPDH, #2118) as the internal standard overnight; then, they were probed with secondary isotype-specific antibodies for another 2 h at 37 °C. The bound immuno-complexes were detected using a ChemiDOC XRS+ system (BioRad Laboratories, Hercules, CA, USA).

Bax in HeLa cells = assay: Western blot, Bax; type: cell-based, human; conditions: 6–12 μM, 24 h
Procedure: (§3) Protein levels were determined by the standard Western blot assay. HeLa cells were incubated with different concentrations of compound 5c or 0.1% DMSO for 24 h. Cells harvested with trypsin were treated with 1× RIPA lysis buffer (50 mM Tris-HCl, pH 7.4, 150 mM NaCl, 0.25% deoxycholic acid, 1% NP-40, 1 mM ethylenediaminetetraacetate (EDTA), and protease inhibitor PMSF (Solarbio, Beijing, China) to extract the total proteins. Then, an aliquot of proteins from the total cell lysates (4–40 μg/lane) was separated using sodium dodecyl sulfate (8, 10, or 12%) polyacrylamide gel electrophoresis (BioRad Laboratories, Hercules, CA, USA). The aliquot was wet-transferred to a PVDF membrane (BioRad Laboratories, Hercules, CA, USA), blotted with primary antibodies (purchased from Cell Signaling Technology, Danvers, MA, USA) specific for the STAT3 (#12640), p-STAT3 (#9145), AKT (#4691), p-AKT (#4060), Bax (#5023), Bcl-xl (#2764), secondary isotype-specific antibodies (#7074) and glyceraldehyde-3-phosphate dehydro-genase (GAPDH, #2118) as the internal standard overnight; then, they were probed with secondary isotype-specific antibodies for another 2 h at 37 °C. The bound immuno-complexes were detected using a ChemiDOC XRS+ system (BioRad Laboratories, Hercules, CA, USA).

Bcl-xl in HeLa cells = assay: Western blot, Bcl-xl; type: cell-based, human; conditions: 6–12 μM, 24 h
Procedure: as §3

- IC50 (HeLa; 48 h): 3.1 ± 0.02 µM
- IC50 (PC3): 20.5 ± 0.05 µM
- IC50 (PC3; Homo sapiens, PC-3, 48 h): > 20.5 µM
- IC50 (HCT116; HCT-116, 48 h): 13.38 ± 0.04 µM
- IC50 (Hep3B): 34.77 ± 0.03 µM
- IC50 (Hep3B; Homo sapiens): > 20.5 µM
Compound: N#C/C(=C\c1ccc(C2=CC(=O)c3ccccc3C2=O)o1)C(=O)NCCN1CCOCC1 [Compound 5c, (E)-2-cyano-3-(5-(1,4-dioxo-1,4-dihydronaphthalen-2-yl)furan-2-yl)-N-(2-morpholinoethyl)acrylamide]
- inhibition at 20 µM (HeLa; 20 μM, read-out: Inhibition Rate (%) at 20 μM HeLa): 75.78 ± 0.05%
- inhibition at 20 µM (PC3; Homo sapiens, PC-3, 20 μM, read-out: Inhibition Rate (%) at 20 μM PC3): 25.54 ± 0.06%
- inhibition at 20 µM (HCT116; HCT-116, 20 μM, read-out: Inhibition Rate (%) at 20 μM HCT116): 67.67 ± 0.01%
- IC50 (L02 cells): 51.7 ± 0.1 µM
- cell migration (HeLa cells): significantly inhibited
- phosphorylation level of AKT [1]: effectively inhibited
- levels of Bax (Bax in HeLa cells): increased
- total Bcl-xl levels (Bcl-xl in HeLa cells): significantly decreased
